In brackets after ≈: the same amount, converted by molar mass. Read-outs that look alike come from different tables or passages of the source.
Key:
[1] = test system: human monocytic THP-1 cell line; experiment: Cytotoxicity assay in THP-1 monocytes (CellTiter-Blue, 24 h); format: cell-based; details: for IC50: Homo sapiens; for toxicity (in words): compared to the other active compounds
THP-1 cells = details: cited from earlier work
[2] = test system: Mycobacterium tuberculosis H37Rv; experiment: MIC determination by resazurin microtiter plate assay (REMA) with CellTiter-Blue; format: cell-based; details: for MIC: M. tuberculosis H37Rv, 7 days, two-fold dilutions 100 to 1.56 μg/mL, Gompertz fit; for antimycobacterial activity (in words): dose response, Figure 6
human monocyte cells = details: cited from earlier work
[3] = test system: Mycobacterium tuberculosis H37Rv; experiment: Compound library screen against M. tuberculosis at 100 μg/mL (CellTiter-Blue viability); format: cell-based; details: library screen at 100 μg/mL, 7 days
AML12 hepatocytes = details: cited from earlier work
[4] = THP-1 cells, 24 h treatment, 200 to 1.56 μg/mL, read-out: IC50
[5] = Mycobacterium tuberculosis, H37RV, 168 h, read-out: MIC

Row | Structure (SMILES) | IC50 [1, 4] [mg/L] | MIC [2, 5] [mg/L] | further results
1 | CC(C)=CCc1c(O)ccc(C(=O)/C=C/c2ccc(O)cc2)c1O [Compound C1, Isobavachalcone] | 45.9 (≈ 141 µM) | – | cytotoxic concentration 50% (CC50) (THP-1 cells): 11.65 mg/L
2 | COC(=O)C1=C(N)Oc2cc(O)c3c(C)cc(=O)oc3c2C1c1ccc([N+](=O)[O-])cc1 (stereo not drawn) [Compound C10] | 64.2 (≈ 151 µM) | 25 to 71 (≈ 58.9 to 167 µM) | toxicity (in words) [1]: low toxicity; MIC [2]: 29.13 mg/L (≈ 68.6 µM)
3 | COC(=O)/C(C#N)=C/C=C/c1ccccc1 [Compound C13] | – | ≥ 100 | IC50 ([1]; THP-1, 24 h): 95.9 mg/L (≈ 450 µM); toxicity to human monocyte cells (in words) (human monocyte cells): moderately toxic; antimycobacterial activity (in words) [2]: weak activity
4 | COC(=O)C1=C(N)Oc2cc(O)cc(O)c2C1c1ccc(Cl)cc1 (stereo not drawn) [Compound C14] | 47.2 (≈ 136 µM) | ≥ 100 | toxicity to human monocyte cells (in words) (human monocyte cells): moderately toxic; antimycobacterial activity (in words) [2]: weak antimycobacterial activity
5 | COC(=O)C1=C(N)Oc2cc(O)cc(O)c2C1c1ccc(Br)cc1 (stereo not drawn) [Compound C15] | – | ≥ 100 | –
6 | COC(=O)C1=C(N)Oc2cc(O)cc(O)c2C1c1ccc([N+](=O)[O-])cc1 (stereo not drawn) [Compound C16] | – | – | anti-M. tuberculosis activity (in words) [3]: not active
7 | CC1(C)C=Cc2c(ccc(C(=O)/C=C/c3ccc(O)cc3)c2O)O1 [Compound C21, 4-hydroxylonchocarpine] | – | – | anti-M. tuberculosis activity (in words) [3]: not mycobactericidal
8 | COc1c(C=O)c(O)cc2c1C(=O)c1ccccc1C2=O [Compound C22, Damnacanthal] | 21.4 (≈ 75.9 µM) | < 20 | MIC [2]: 13.07 mg/L (≈ 46.3 µM); cytotoxic concentration 50% (CC50) (THP-1 cells): 8.87 mg/L
9 | CC1(C)C=Cc2cc3c(cc2O1)O[C@H]1c2ccc(O)cc2OC[C@@H]31 [Compound C23, Isoneorautenol] | 44.3 (≈ 137 µM) | 25 to 71 (≈ 77.6 to 220 µM) | concentration up to which no cytotoxicity was shown (AML12 hepatocytes): > 123.46 µM; MIC [2]: 49.22 mg/L (≈ 153 µM)
10 | CC(C)=CCc1c(O)c(CC=C(C)C)c2c(c1O)C(=O)C[C@@H](c1ccc(O)c(O)c1)O2 [Compound C24, 6,8-diprenyleriodictyol] | – | ≥ 100 | –
11 | COc1c(C)c(O)cc2c1C(=O)c1ccccc1C2=O [Compound C25, rubiadin 1-methyl ether] | – | – | anti-M. tuberculosis activity (in words) [3]: no anti-M. tuberculosis activity
12 | CCOC(=O)C1=C(C)NC(C)=C(C(=O)OCC)C1c1ccc([N+](=O)[O-])cc1 [Compound C36] | – | ≥ 100 | –
13 | CCOC(=O)C1=C(C)NC(C)=C(C(=O)OCC)C1c1ccc(O)c(OC)c1 [Compound C38] | – | ≥ 100 | –
14 | CCOC(=O)C1=C(C)NC(C)=C(C(=O)OCC)C1c1cc(OC)c(OC)c(OC)c1 [Compound C40] | – | ≥ 100 | –
15 | CCOC(=O)C1=C(C)NC(C)=C(C(=O)OCC)C1c1cc(OC)c(O)c(OC)c1 [Compound C41] | – | ≥ 100 | –
16 | CCOC(=O)C1=C(C)N(c2ccccc2)C(C)=C(C(=O)OCC)C1c1ccc(O)cc1 [Compound C45] | – | ≥ 100 | –
17 | CCOC(=O)C1=C(C)N(c2ccccc2)C(C)=C(C(=O)OCC)C1c1cc(OC)c(O)c(OC)c1 [Compound C49] | – | ≥ 100 | –
18 | CC#CC#CC#CCCCO [Compound C51, Deca-4,6,8-triyn-1-ol] | 170 (≈ 1170 µM) | – | toxicity (in words) [1]: low toxicity
19 | OCCCC#CC#CC#CC#CCCCO [Compound C53, Tetradeca-4,6,8,10-tetrayne-1,14-diol] | 17 (≈ 79.3 µM) | < 20 | melting point: 116.5 to 117 °C; MIC [2]: 17.88 mg/L (≈ 83.4 µM)

From article PMC7847937, “Search for Antimicrobial Activity Among Fifty-Two Natural and Synthetic Compounds Identifies Anthraquinone and Polyacetylene Classes That Inhibit Mycobacterium tuberculosis” (Frontiers in Microbiology, 2021)
